Data set [1] is described as follows: Temperature sensitivity of in vitro T1 relaxivity (r1), 0.47 T. Format: physicochemical. An excerpt: FIG. 1 of the accompanying drawings and Table 5 below show the temperature sensitivity of in vitro T1 relaxivity (r1) for liposome encapsulated GdDTPA-BMA and GdHPDO3A, respectively (0.47T).
The conditions of data set [2]: cited from earlier work.
For data set [3] the following is noted: phosphatidylcholines; cited from earlier work.

In the case of `CC(O)CN1CCN(CC(=O)[O-])CCN(CC(=O)[O-])CCN(CC(=O)[O-])CC1.[Gd+3]` (stereo not shown) [Control, GdHPDO3A], the r1 stood at 4.53 s⁻¹ mM⁻¹ in data set [1] (20 °C); 4.27 s⁻¹ mM⁻¹ in data set [1] (25 °C); 3.94 s⁻¹ mM⁻¹ in data set [1] (30 °C); 3.75 s⁻¹ mM⁻¹ in data set [1] (37 °C); 3.07 s⁻¹ mM⁻¹ in data set [1] (45 °C); 2.82 s⁻¹ mM⁻¹ in data set [1] (55 °C). The compound also gave a r1 in data set [1] (60 °C) of 2.54 s⁻¹ mM⁻¹. On to `CCCCCCCCCCCCOC(=O)C(C)n1ccnc1` (stereo not shown) [DIP], for which the pKa in data set [2] was 6.8. Also, in data set [2] (lysosomal pH (5.2)), the charged form result is “over 97%”. Besides, the “non-ionized (non/low surfactant activity) form” value in data set [2] (pH 7.3-7.4 (physiological)) was 80%. As for `CCCCCCCCCCCCC(=O)OC[C@H](COP(=O)([O-])OCC[N+](C)(C)C)OC(=O)CCCCCCCCCCCC` [PC 13:0], the “Transition temperature Tc” value in data set [3] is 14 °C.

With `CCCCCCCCCCCCCCCC(=O)O[C@H](COC(=O)CCCCCCCCCCCCC)COP(=O)([O-])OCC[N+](C)(C)C` [PC 14:0-16:0], the “Transition temperature Tc” value in data set [3] was 35 °C. `CCCCCCCCCCCCCCCCCC(=O)O[C@H](COC(=O)CCCCCCCCCCCCC)COP(=O)([O-])OCC[N+](C)(C)C` [PC 14:0-18:0]: the “Transition temperature Tc” value in data set [3] was 40 °C.

Regarding `CCCCCCCCCCCCCCC(=O)OC[C@H](COP(=O)([O-])OCC[N+](C)(C)C)OC(=O)CCCCCCCCCCCCCC` [PC 15:0], the “Transition temperature Tc” value in data set [3] was 33 °C. `CCCCCCCCCCCCCCCCCC(=O)O[C@H](COC(=O)CCCCCCCCCCCCCCC)COP(=O)([O-])OCC[N+](C)(C)C` [PC 16:0-18:0]: in data set [3], the “Transition temperature Tc” value was 49 °C.

Consider `CCCCCCCCCCCCCCCCC(=O)OC[C@H](COP(=O)([O-])OCC[N+](C)(C)C)OC(=O)CCCCCCCCCCCCCCCC` [PC 17:0], for which the “Transition temperature Tc” value in data set [3] is 48 °C. As for `CCCCCCCCCCCCCCCCCC(=O)OC[C@H](COP(=O)([O-])OCC[N+](C)(C)C)OC(=O)CCCCCCCCCCCCCCC` [PC 18:0-16:0], the “Transition temperature Tc” value in data set [3] was 44 °C. Consider `CCCCCCCCCCC/C=C\CCCCC(=O)OC[C@H](COP(=O)([O-])OCC[N+](C)(C)C)OC(=O)CCCC/C=C\CCCCCCCCCCC` [PC 18:1c6], for which, in data set [3], the “Transition temperature Tc” value was 1 °C.

With `CCCCCCCC/C=C\CCCCCCCC(=O)OC[C@H](COP(=O)([O-])OCC[N+](C)(C)C)OC(=O)CCCCCCC/C=C\CCCCCCCC` [PC 18:1c9], in data set [3], the “Transition temperature Tc” value was −20 °C.

Regarding `CCCCCCCC/C=C/CCCCCCCC(=O)OC[C@H](COP(=O)([O-])OCC[N+](C)(C)C)OC(=O)CCCCCCC/C=C/CCCCCCCC` [PC 18:1t9], the “Transition temperature Tc” value in data set [3] was 12 °C.

With `CCCCCCCCCCCCCCCCCCCC(=O)OC[C@H](COP(=O)([O-])OCC[N+](C)(C)C)OC(=O)CCCCCCCCCCCCCCCCCCC` [PC 20:0], the “Transition temperature Tc” value in data set [3] is 66 °C. As to `CCCCCCCCCCCCCCCCCCCCC(=O)OC[C@H](COP(=O)([O-])OCC[N+](C)(C)C)OC(=O)CCCCCCCCCCCCCCCCCCCC` [PC 21:0], the “Transition temperature Tc” value in data set [3] is 72 °C. `CCCCCCCCCCCCCCCCCCCCCC(=O)OCC(COP(=O)([O-])OCC[N+](C)(C)C)OC(=O)CCCCCCCCCCCCCCCCCCCCC` (stereo not shown) [PC 22:0, Dibehenoyl-PC]: the “Transition temperature Tc” value in data set [3] was 75 °C. Take `CCCCCCCCCCCCCCCCCCCCCCC(=O)OC[C@H](COP(=O)([O-])OCC[N+](C)(C)C)OC(=O)CCCCCCCCCCCCCCCCCCCCCC` [PC 23:0]: in data set [3], the “Transition temperature Tc” value was 79 °C.

On to `CCCCCCCCCCCCCCCCCCCCCCCC(=O)OC[C@H](COP(=O)([O-])OCC[N+](C)(C)C)OC(=O)CCCCCCCCCCCCCCCCCCCCCCC` [PC 24:0], for which the “Transition temperature Tc” value in data set [3] is 80 °C.

For orientation: pKa means the pH at which an ionisable group is half protonated.

Source of the values: US20090191131A1, “USE OF PARTICULATE CONTRAST AGENTS IN DIAGNOSTIC IMAGING FOR STUDYING PHYSIOLOGICAL PARAMATERS” (priority 1998, published 2009).
